In PMC8205030, “Methoxy and bromo scans on N-(5-methoxyphenyl) methoxybenzenesulphonamides reveal potent cytotoxic compounds, especially against the human breast adenocarcinoma MCF7 cell line” (Journal of Enzyme Inhibition and Medicinal Chemistry, 2021):
Like-named read-outs stand apart in the source and are kept apart here.

Columns and labels:
[1] = system: HeLa (human cervical carcinoma) cells; assay: Cell growth assay (XTT), HeLa; type: cell-based; conditions: 72 h drug exposure, read-out: Antiproliferative activity IC50 HeLa
Procedure: (§1) The presence of mycoplasma was routinely checked with MycoAlert kit (Lonza-Cambrex) and only mycoplasma-free cells were used in the experiments. Tumour cell lines were kindly provided by Dr Faustino Mollinedo from Centro de Investigaciones Biológicas Margarita Salas, Madrid, Spain. To determine cell growth, cells in exponential growth phase were seeded (100 µL/well in 96-well plates) with appropriate cell concentration (1.5 × 10^4 cells/mL for MCF7, HeLa and HEK-293 and 3 × 10^4 cells/mL for HT-29) in complete DMEM or RPMI 1640 medium (see above) at 37 °C and 5% CO2 atmosphere. After 24 h incubation, to allow cells to attach to the plates, all compounds were added at 1 µM concentration (10 µL/well in 96-well plates) and the effect on the proliferation was evaluated 72 h post-treatment. Compounds showing antiproliferative effects at tested concentration were selected for IC50 calculation (50% inhibitory concentration compared to the untreated controls) from 10^−5 to 10^−10 M concentration. Nonlinear curves fitting the experimental data were carried out for each compound. […] A freshly prepared mixture solution of XTT labelling reagent with 0.02% (v/v) PMS (N-methyl-dibenzopyrazine methyl sulfate) electron coupling reagent was added to cells (50 µL/well in 96-well plates, the total volume of 160 µL/well) and were incubated during the corresponding time according to each cell line (4 h for MCF7 and HeLa and 6 h for HT-29 and HEK-293) in a humidified atmosphere (37 °C, 5% CO2). The absorbance of the formazan product generated was measured at a test wavelength of 450 nm using a multi-well plate reader (Ultra Evolution, Tecan, Männedorf, Suiza). Compounds were dissolved in DMSO and the final solvent concentrations never exceeded 0.5% (v/v). The control wells included treated cells with 0.5% (v/v) DMSO and the positive control. 10 µM verapamil was included as a control for the HT-29 cell line. Measurements were performed in triplicate, and each experiment was repeated three times.

[2] = target: T1, microtubular protein isolated from calf brain (Bos taurus, UniProt P81947+Q6B856); assay: Inhibition of tubulin polymerisation (turbidity); type: biochemical; conditions: for TPI % 10 µM: 10 µM compound, 1.5 mg/mL microtubular protein; for IC50: in vitro tubulin polymerisation inhibition, read-out: TPI IC50
T1 construct: isolated from calf brain according to the modified Shelanski method; from tissue; host or cells: calf brain
Procedure: Microtubular protein was isolated from calf brain according to the modified Shelanski method[23]^,[24] by two cycles of temperature-dependent assembly/disassembly and stored at −80 °C. Before each use, protein concentration is determined by Bradford method[25] taking BSA as standard. Tubulin polymerisation was monitored using a Helios α spectrophotometer by measuring the increase in turbidity at 450 nm, caused by a shift from 4 °C to 37 °C, which allows the in vitro microtubular protein to depolymerise and to polymerise, respectively. The assay was carried out in quartz cuvettes containing 1.5 mg/mL microtubular protein and the ligand (except for control cuvette with only DMSO at the same concentration) in a mixture of 0.1 M MES buffer, 1 mM EGTA, 1 mM MgCl2, 1 mM β-ME, and 1.5 mM GTP at pH 6.7 (final volume 500 µL). Cuvettes were preincubated at 20 °C for 30 min, to allow ligand binding to tubulin, and subsequently cooled on ice for 10 min. Then, the experiment starts at 4 °C to establish the initial baseline. The assembly process was initiated by a temperature shift to 37 °C and the turbidity produced by tubulin polymerisation can be measured by an absorbance increase. After reaching a stable plateau, the temperature was switched back to 4 °C to return to the initial absorption values (to confirm the reversible nature of the monitored process and to determine whether or not the microtubular protein has stabilized). The difference in amplitude between the stable plateau and the initial baseline of the curves was taken as the degree of tubulin polymerisation for each experiment. […] All compounds were tested at 10 µM concentration. IC50 values were calculated for compounds that inhibit tubulin polymerisation more than 50% at 10 µM. […] All the measurements were carried out in at least two independent experiments using microtubular protein from different preparations.

[3] = system: MCF7 (human breast carcinoma) cells; assay: Cell growth assay (XTT), MCF7; type: cell-based; conditions: for IC50: Homo sapiens, MCF7, 72 h drug exposure, XTT, read-out: Antiproliferative activity IC50 MCF7
Procedure: as §1

[4] = system: HT-29 (human colon carcinoma) cells; assay: Cell growth assay (XTT), HT-29, alone or with verapamil; type: cell-based
Procedure: as §1, with “Compounds showing antiproliferative effects at tested concentration were selected for IC50 calculation (50% inhibitory concentration compared to the untreated controls) from 10^−5 to 10^−10 M concentration.” left out

[5] = Homo sapiens, HT-29, 72 h drug exposure, XTT, read-out: Antiproliferative activity IC50 HT-29
[6] = 72 h, in the presence of Pgp/MDR1 inhibitor verapamil (10 µM), read-out: Antiproliferative activity IC50 HT-29 Verap

T1 sequence (Q6B856 whole entry): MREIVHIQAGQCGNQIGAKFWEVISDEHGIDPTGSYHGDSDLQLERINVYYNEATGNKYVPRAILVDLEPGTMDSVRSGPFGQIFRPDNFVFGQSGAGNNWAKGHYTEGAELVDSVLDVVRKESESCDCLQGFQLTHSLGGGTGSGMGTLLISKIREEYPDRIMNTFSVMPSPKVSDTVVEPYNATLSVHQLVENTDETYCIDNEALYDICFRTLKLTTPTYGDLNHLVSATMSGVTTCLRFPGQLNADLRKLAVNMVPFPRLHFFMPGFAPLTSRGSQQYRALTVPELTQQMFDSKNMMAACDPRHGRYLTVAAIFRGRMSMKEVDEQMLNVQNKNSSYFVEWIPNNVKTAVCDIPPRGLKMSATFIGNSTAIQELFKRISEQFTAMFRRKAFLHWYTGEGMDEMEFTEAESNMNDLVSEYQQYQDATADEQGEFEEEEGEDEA
T1 sequence (P81947 whole entry): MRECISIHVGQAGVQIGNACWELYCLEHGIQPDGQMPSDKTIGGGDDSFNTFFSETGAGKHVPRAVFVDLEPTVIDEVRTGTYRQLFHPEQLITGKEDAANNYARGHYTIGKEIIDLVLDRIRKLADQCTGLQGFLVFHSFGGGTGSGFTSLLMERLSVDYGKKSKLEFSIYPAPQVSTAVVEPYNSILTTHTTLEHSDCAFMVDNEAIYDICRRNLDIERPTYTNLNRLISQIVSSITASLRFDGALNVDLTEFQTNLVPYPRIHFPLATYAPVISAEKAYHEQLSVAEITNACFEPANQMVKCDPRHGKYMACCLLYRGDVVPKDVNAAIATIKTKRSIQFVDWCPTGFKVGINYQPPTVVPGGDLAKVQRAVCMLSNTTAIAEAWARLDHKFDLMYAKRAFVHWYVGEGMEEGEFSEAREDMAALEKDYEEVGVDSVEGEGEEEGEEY

| Structure (SMILES) | IC50 [1] | TPI % 10 µM [2] | IC50 [2] | IC50 [3] | melting point | IC50 [4, 5] | IC50 [4, 6] | Difference in HT-29 IC50 values from co-treatment with MDR inhibitor ([4]; without vs with verapamil 10 µM) | Fold more potent against MCF7 than against HeLa ([3]; ratio of IC50 values) |
| --- | --- | --- | --- | --- | --- | --- | --- | --- | --- |
| COc1ccc(S(=O)(=O)Nc2cc(OC)cc(OC)c2)cc1 [Compound 1, N-(3,5-dimethoxyphenyl)-4-methoxybenzenesulphonamide] | > 1000 nM | 0% | > 10000 nM | > 1000 nM | 115 to 122 °C | > 1000 nM |  |  |  |
| CCN(c1cc(OC)cc(OC)c1)S(=O)(=O)c1ccc(OC)cc1 [Compound 3, N-(3,5-dimethoxyphenyl)-N-ethyl-4-methoxybenzenesulphonamide] | > 1000 nM | 0% | > 10000 nM | > 1000 nM | 109 to 118 °C | > 1000 nM |  |  |  |
| COc1ccc(S(=O)(=O)N(CC#N)c2cc(OC)cc(OC)c2)cc1 [Compound 4, N-(cyanomethyl)-N-(3,5-dimethoxyphenyl)-4-methoxybenzenesulphonamide] | > 1000 nM | 0% | > 10000 nM | > 1000 nM | 92 to 96 °C | > 1000 nM |  |  |  |
| CCOC(=O)CN(c1cc(OC)cc(OC)c1)S(=O)(=O)c1ccc(OC)cc1 [Compound 5, Ethyl N-(3,5-dimethoxyphenyl)-N-((4-methoxyphenyl)sulphonyl)glycinate] | > 1000 nM | 0% | > 10000 nM | > 1000 nM |  | > 1000 nM |  |  |  |
| COc1ccc(S(=O)(=O)N(Cc2ccccc2)c2cc(OC)cc(OC)c2)cc1 [Compound 6, N-benzyl-N-(3,5-dimethoxyphenyl)-4-methoxybenzenesulphonamide] | > 1000 nM | 0% | > 10000 nM | > 1000 nM | 146 to 150 °C | > 1000 nM |  |  |  |
| COc1ccc(S(=O)(=O)N(C(=O)OCc2ccccc2)c2cc(OC)cc(OC)c2)cc1 [Compound 7, Benzyl (3,5-dimethoxyphenyl)((4-methoxyphenyl)sulphonyl)carbamate] | > 1000 nM | 0% | > 10000 nM | > 1000 nM | 129 to 131 °C | > 1000 nM |  |  |  |
| COc1ccc(S(=O)(=O)N(C)c2cc(OC)c(Br)c(OC)c2)cc1 [Compound 8a, N-(4-bromo-3,5-dimethoxyphenyl)-4-methoxy-N-methylbenzenesulphonamide] | 497 nM | 10% | > 10000 nM | 99 nM |  | 495 nM | 293 nM |  | 4–7 fold |
| CCOC(=O)CN(c1cc(OC)c(Br)cc1OC)S(=O)(=O)c1ccc(OC)cc1 [Compound 26, Ethyl N-(4-bromo-2,5-dimethoxyphenyl)-N-((4-methoxyphenyl)sulphonyl)glycinate] | 577 nM | 28% | > 10000 nM | 700 nM |  | 2100 nM | 867 nM |  |  |
| CCOC(=O)N(c1cc(OC)c(Br)cc1OC)S(=O)(=O)c1ccc(OC)cc1 [Compound 27, Ethyl (4-bromo-2,5-dimethoxyphenyl)((4-methoxyphenyl)sulphonyl)carbamate] | 377 nM | 44% | > 10000 nM | 220 nM |  | 525 nM | 170 nM | higher than 3 fold |  |
| COc1ccc(S(=O)(=O)N(CC2CO2)c2cc(OC)c(Br)cc2OC)cc1 (stereo not drawn) [Compound 28, N-(4-bromo-2,5-dimethoxyphenyl)-4-methoxy-N-(oxiran-2-ylmethyl)benzenesulphonamide] | 495 nM | 32% | > 10000 nM |  |  | 860 nM |  |  |  |
| COc1ccc(S(=O)(=O)N(Cc2ccccc2)c2cc(OC)c(OC)cc2OC)cc1 [Compound 37, N-benzyl-4-methoxy-N-(2,4,5-trimethoxyphenyl)benzenesulphonamide] | 833 nM | 7% | > 10000 nM |  | 130 to 139 °C | 1250 nM |  |  |  |
| COc1ccc(S(=O)(=O)Nc2cc(OC)c(OC)c(OC)c2)cc1 [TMP[41], N-(3,4,5-trimethoxyphenyl)-4-methoxyphenylsulphonamide, reference compound] | 240 nM |  |  |  |  |  | 975 nM |  |  |

Further lines, with some results ahead:

| IC50 [1] | TPI % 10 µM [2] | IC50 [2] | IC50 [3] | melting point | IC50 [4, 5] | IC50 [4, 6] | Difference in HT-29 IC50 values from co-treatment with MDR inhibitor ([4]; without vs with verapamil 10 µM) | Structure (SMILES) | Fold more potent against MCF7 than against HeLa ([3]; ratio of IC50 values) |
| --- | --- | --- | --- | --- | --- | --- | --- | --- | --- |
| 388 nM | 69% | 4400 nM | 180 nM |  |  |  |  | COc1ccc(S(=O)(=O)Nc2cccnc2Nc2ccc(O)cc2)cc1 [ABT-751, reference compound] |  |
| 417 nM | 0% | > 10000 nM |  |  | 610 nM |  |  | CCN(c1cc(OC)c(Br)c(OC)c1)S(=O)(=O)c1ccc(OC)cc1 [Compound 9a, N-(4-bromo-3,5-dimethoxyphenyl)-N-ethyl-4-methoxybenzenesulphonamide] |  |
| 310 nM | 0% | > 10000 nM | 335 nM |  | 450 nM | 533 nM |  | COc1ccc(S(=O)(=O)N(Cc2ccccc2)c2cc(OC)c(Br)c(OC)c2)cc1 [Compound 10a, N-benzyl-N-(4-bromo-3,5-dimethoxyphenyl)-4-methoxybenzenesulphonamide] |  |
| > 1000 nM | 0% | > 10000 nM | > 1000 nM |  | > 1000 nM |  |  | COc1ccc(S(=O)(=O)N(Cc2ccccc2)c2cc(OC)cc(OC)c2Br)cc1 [Compound 10b, N-benzyl-N-(2-bromo-3,5-dimethoxyphenyl)-4-methoxybenzenesulphonamide] |  |
| > 1000 nM | 0% | > 10000 nM | > 1000 nM |  | > 1000 nM |  |  | COc1ccc(S(=O)(=O)N(Cc2ccccc2)c2cc(OC)c(Br)c(OC)c2Br)cc1 [Compound 10c, N-benzyl-N-(2,4-dibromo-3,5-dimethoxyphenyl)-4-methoxybenzenesulphonamide] |  |
